Measurements: patent US6492375B2, “Partially saturated calcium channel blockers” (NeuroMed Technologies, Inc., priority 1998, dated 2002)
Several values for one entry are separate records, joined by “and”; a condition that tells them apart may be missing. Identical values can stand only once.

Target: T1, rat α1B+α2b+β1b channels (Rattus norvegicus, UniProt Q02294)
T1 construct: expressed in transfected cells
Assay: N-type calcium channel blocking activity, whole cell patch recordings
Format: cell-based
Settings: N-type calcium channels expressed in human embryonic kidney cells; 5 mM barium as charge carrier
Description: Antagonist activity was measured using whole cell patch recordings on human embryonic kidney cells either stably or transiently expressing rat α1B+α2b+β1b channels with 5 mM barium as a charge carrier.
For transient expression, host cells, such as human embryonic kidney cells, HEK 293 (ATCC# CRL 1573) are grown in standard DMEM medium supplemented with 2 mM glutamine and 10% fetal bovine serum. HEK 293 cells are transfected by a standard calcium-phosphate-DNA coprecipitation method using the rat α1B+β1b+α2δ N-type calcium channel subunits in a vertebrate expression vector (for example, see Current Protocols in Molecular Biology).
After an incubation period of from 24 to 72 hrs the culture medium is removed and replaced with external recording solution (see below). Whole cell patch clamp experiments are performed using an Axopatch 200B amplifier (Axon Instruments, Burlingame, Calif.) linked to an IBM compatible personal computer equipped with pCLAMP software. Borosilicate glass patch pipettes (Sutter Instrument Co., Novato, Calif.) were polished (Microforge, Narishige, Japan) to a resistance of about 4 MΩ when filled with cesium methanesulfonate internal solution (composition in MM: 109 CsCH3SO4, 4 MgCl2, 9 EGTA, 9 HEPES, pH 7.2). Cells were bathed in 5 mM Ba^++ (in mM: 5 BaCl2, 1 MgCl2, 10 HEPES, 40 tetraethylammonium chloride, 10 glucose, 87.5 CsCl pH 7.2). Current data shown were elicited by a train of 100 ms test pulses at 0.066 Hz from −100 mV and/or −80 mV to various potentials (min. −20 mV, max. +30 mV). Drugs were perfused directly into the vicinity of the cells using a microperfusion system.
Normalized dose-response curves were fit (Sigmaplot 4.0, SPSS Inc., Chicago, Ill.) by the Hill equation to determine IC50 values. Steady-state inactivation curves were plotted as the normalized test pulse amplitude following 5 s inactivating prepulses at +10 mV increments. Inactivation curves were fit (Sigmaplot 4.0) with the Boltzman equation, Ipeak (normalized)=1/(1+exp((V-Vh)z/25.6)), where V and Vh are the conditioning and half inactivation potentials, respectively, and z is the slope factor. […]

T1 sequence (Q02294 whole entry): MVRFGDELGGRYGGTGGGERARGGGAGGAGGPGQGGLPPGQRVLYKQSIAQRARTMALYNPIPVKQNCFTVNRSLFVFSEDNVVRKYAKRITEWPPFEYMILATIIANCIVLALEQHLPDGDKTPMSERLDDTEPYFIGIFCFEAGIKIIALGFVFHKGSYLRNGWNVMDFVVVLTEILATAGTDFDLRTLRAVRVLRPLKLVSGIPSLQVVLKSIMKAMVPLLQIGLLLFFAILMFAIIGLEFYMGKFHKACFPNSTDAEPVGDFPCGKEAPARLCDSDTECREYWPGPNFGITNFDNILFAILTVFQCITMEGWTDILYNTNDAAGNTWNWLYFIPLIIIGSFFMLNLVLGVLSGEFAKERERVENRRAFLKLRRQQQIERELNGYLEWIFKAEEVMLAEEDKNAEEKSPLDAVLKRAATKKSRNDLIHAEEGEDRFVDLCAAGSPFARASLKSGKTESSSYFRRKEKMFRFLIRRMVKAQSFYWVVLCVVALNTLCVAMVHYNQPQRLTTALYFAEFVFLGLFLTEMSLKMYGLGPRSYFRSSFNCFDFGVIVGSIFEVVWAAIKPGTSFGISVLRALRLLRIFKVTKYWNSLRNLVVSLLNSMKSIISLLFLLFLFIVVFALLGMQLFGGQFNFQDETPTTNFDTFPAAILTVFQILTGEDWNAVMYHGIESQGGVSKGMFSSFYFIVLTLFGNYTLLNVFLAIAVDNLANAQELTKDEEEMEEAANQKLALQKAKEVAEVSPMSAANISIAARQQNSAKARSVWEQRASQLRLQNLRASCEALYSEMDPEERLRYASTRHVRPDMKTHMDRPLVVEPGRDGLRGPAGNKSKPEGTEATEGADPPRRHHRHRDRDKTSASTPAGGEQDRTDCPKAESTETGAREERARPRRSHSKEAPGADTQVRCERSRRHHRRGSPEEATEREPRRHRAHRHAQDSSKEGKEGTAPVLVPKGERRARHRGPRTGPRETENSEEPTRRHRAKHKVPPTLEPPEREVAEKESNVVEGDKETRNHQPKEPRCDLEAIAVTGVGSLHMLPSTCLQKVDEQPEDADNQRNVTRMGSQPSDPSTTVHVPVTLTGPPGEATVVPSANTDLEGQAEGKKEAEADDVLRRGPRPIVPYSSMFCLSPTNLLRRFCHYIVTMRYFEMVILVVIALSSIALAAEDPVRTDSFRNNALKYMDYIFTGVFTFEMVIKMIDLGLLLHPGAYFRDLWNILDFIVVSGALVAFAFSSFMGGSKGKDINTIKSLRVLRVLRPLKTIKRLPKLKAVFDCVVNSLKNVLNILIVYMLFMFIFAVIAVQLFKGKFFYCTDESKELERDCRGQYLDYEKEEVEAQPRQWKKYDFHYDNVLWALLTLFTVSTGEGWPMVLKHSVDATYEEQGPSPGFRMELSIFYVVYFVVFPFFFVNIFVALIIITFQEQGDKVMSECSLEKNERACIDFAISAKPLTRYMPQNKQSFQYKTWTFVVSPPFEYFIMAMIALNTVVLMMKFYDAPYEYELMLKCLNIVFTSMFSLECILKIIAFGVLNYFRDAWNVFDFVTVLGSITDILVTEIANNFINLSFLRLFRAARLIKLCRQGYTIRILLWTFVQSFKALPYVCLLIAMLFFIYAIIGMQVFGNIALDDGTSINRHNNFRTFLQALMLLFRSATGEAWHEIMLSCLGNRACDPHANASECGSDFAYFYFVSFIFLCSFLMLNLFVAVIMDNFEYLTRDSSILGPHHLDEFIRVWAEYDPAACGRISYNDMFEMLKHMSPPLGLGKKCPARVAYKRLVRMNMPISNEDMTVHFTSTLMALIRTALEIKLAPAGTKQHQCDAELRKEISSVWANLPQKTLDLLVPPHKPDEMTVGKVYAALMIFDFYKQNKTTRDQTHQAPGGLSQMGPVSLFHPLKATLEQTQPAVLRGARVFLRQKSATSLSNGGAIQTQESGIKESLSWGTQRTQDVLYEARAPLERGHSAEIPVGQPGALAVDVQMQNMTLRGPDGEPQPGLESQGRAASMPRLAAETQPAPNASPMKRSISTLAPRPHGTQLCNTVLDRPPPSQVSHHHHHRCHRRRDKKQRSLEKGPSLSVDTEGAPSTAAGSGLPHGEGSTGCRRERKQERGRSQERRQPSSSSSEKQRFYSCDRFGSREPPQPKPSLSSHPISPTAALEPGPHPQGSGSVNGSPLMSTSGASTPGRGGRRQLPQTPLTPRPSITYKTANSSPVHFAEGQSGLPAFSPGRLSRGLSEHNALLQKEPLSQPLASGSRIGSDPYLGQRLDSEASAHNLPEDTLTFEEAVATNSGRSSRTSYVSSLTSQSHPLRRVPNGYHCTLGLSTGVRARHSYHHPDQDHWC
T1 sequence (P54290 25-944 partner limits assumed): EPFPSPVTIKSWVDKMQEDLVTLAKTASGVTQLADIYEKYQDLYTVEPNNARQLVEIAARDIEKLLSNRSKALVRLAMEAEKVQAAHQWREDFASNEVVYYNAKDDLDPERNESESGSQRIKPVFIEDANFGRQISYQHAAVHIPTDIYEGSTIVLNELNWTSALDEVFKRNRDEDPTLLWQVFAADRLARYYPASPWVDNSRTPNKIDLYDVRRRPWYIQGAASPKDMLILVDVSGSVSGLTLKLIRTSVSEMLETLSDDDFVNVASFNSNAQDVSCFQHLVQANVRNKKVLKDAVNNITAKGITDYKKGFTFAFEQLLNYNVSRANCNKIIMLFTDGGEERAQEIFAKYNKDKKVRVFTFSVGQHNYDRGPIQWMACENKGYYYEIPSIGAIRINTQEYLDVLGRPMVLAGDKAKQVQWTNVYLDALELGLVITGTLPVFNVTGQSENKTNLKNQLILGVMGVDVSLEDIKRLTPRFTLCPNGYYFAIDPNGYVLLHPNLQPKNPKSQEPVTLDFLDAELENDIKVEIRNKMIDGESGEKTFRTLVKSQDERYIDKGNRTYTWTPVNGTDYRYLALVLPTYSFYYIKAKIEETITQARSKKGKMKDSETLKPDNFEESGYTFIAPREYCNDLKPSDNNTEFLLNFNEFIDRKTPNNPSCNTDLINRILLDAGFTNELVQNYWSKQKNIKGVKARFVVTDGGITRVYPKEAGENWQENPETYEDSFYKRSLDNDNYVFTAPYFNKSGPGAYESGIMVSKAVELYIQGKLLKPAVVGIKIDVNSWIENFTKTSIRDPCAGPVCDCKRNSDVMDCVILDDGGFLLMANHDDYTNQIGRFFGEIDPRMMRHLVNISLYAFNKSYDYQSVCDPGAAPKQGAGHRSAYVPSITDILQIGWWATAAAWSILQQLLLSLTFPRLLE
T1 sequence (P54290 945-1091 partner limits assumed): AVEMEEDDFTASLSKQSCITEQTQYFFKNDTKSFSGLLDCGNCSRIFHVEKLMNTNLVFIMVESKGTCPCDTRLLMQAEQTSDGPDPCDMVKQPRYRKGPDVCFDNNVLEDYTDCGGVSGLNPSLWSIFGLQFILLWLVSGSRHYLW
T1 sequence (P54283 whole entry partner): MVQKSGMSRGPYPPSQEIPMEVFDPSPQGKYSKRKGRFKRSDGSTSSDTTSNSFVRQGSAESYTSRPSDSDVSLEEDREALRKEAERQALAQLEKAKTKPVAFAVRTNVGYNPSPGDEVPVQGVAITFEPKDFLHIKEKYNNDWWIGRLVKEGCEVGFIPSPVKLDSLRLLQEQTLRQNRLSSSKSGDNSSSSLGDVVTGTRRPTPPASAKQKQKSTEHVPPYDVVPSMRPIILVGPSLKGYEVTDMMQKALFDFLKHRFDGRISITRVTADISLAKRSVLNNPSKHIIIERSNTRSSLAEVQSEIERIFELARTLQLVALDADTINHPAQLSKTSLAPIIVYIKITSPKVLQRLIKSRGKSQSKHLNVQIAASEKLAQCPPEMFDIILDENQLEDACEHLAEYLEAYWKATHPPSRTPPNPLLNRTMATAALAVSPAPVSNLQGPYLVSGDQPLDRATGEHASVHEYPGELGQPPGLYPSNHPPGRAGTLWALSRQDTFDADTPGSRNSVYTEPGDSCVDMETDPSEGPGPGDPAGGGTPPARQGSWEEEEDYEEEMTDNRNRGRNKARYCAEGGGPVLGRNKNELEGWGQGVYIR

| SMILES | IC50 |
| --- | --- |
| C(=Cc1ccccc1)CN1CCN(CC(C2CCCCC2)C2CCCCC2)CC1 | 10.2 µM |
| O=C(C(c1ccccc1)C1CCCCC1)N1CCN(CC=Cc2ccccc2)CC1 (stereo not drawn) | ~5 µM |
| O=C(C(C1CCCCC1)C1CCCCC1)N1CCN(Cc2ccccc2)CC1 [Ya=c-hex, c-hex; X^1=CHCO; X^2=CH2; Ar=φ] | 14.2 µM |
| O=C(C(C1CCCCC1)C1CCCCC1)N1CCN(CC=Cc2ccccc2)CC1 | 5.9 µM |
| O=C(CCCCCC(c1ccccc1)C1CCCCC1)N1CCN(CC=Cc2ccccc2)CC1 (stereo not drawn) | 12.2 µM |
| C(=Cc1ccccc1)CN1CCN(CC(c2ccccc2)C2CCCCC2)CC1 (stereo not drawn) | 10.6 µM and ~5 µM |

Continued, values first:

| IC50 | SMILES |
| --- | --- |
| 5.9 µM | C(=Cc1ccccc1)CN1CCN(CCCCCC(c2ccccc2)C2CCCCC2)CC1 (stereo not drawn) |
| 3.2 µM | C(=Cc1ccccc1)CN1CCN(CCCCCCC(c2ccccc2)C2CCCCC2)CC1 (stereo not drawn) |
| ~20 µM | O=C(C(c1ccccc1)C1CCCCC1)N1CCN(Cc2ccccc2)CC1 (stereo not drawn) [Ya=φ, c-hex; X^1=CHCO; X^2=CH2; Ar=φ] |
